Assay results: patent US20230346820A1, “METHODS AND COMPOSITIONS FOR THE TREATMENT OF SARS-COV-2” (priority 2020, published 2023)
pEC50: −log10 of the molar value. Structures can show the parent of a compound that is named as a salt. Where two headings read alike, the source gives them in different places.

Assays:
HeLa-ACE2 cells = test: cells; type: cell-based, human
SARS-CoV-2 [1] = tested on: SARS-CoV-2
in vitro = details: human, CC50 [μM] (Geomeans, n ≥ 2 except where indicated: *n = 1)
SARS-CoV-2 [2] = test: microbe, parasite or virus in culture; details: Severe acute respiratory syndrome coronavirus 2, HeLa-ACE2, 24 h, read-out: CoV-2 EC50 [μM] (Geomeans, n ≥ 2)
SARS-CoV-2 [3] = details: read-out: Calu-3 CoV-2 EC50; Table 4; aggregated data, Geomean, n = 3; 48 h
[4] = Homo sapiens, HeLa-ACE2, read-out: HeLa-ACE-2 EC50 [μM] (Geomeans, n ≥ 2)

Row | Structure (SMILES) | EC50 (HeLa-ACE2 cells; [4]) [µM] | HeLa-ACE2 CC50/CoV-2 EC50 (SARS-CoV-2 [1]) | CC50 (in vitro) [µM] | EC50 (SARS-CoV-2 [2]) [µM] | pEC50 (SARS-CoV-2 [1]; read-out: HeLa-ACE2 CoV-2 EC50, Table 4, aggregated data, Geomean, n = 3) | pEC50 (SARS-CoV-2 [3]) | EC50 (HeLa-ACE2 cells; read-out: HeLa-ACE-2 EC50 [μM] (Geomeans, n ≥ 2)) [µM] | EC50 (SARS-CoV-2 [1]; read-out: CoV-2 EC50 [μM] (Geomeans, n ≥ 2), Table 1, HeLa-ACE2, 24 h) [µM]
1 | CCNCc1cc(Nc2ccnc3cc(Cl)ccc23)ccc1O | > 9.59 | >16.69 | > 20.4 | 1.22 |  |  |  | 
2 | CN1C[C@@H]2c3ccccc3Oc3ccc(Cl)cc3[C@H]2C1 (racemic) [Asenapine maleate] |  |  | > 35.6 |  |  |  |  | 
3 | Nc1ncnc2c1nc(Cl)n2[C@@H]1O[C@H](CO)[C@@H](O)[C@H]1O [8-Chloroadenosine] |  | >12.80 | > 11.9 | 0.927 |  |  |  | 
4 | CC(C)(/C=N/OCC(=O)O)Cc1c(SC(C)(C)C)c2cc(OCc3ccc4ccccc4n3)ccc2n1Cc1ccc(Cl)cc1 [A 81834] | > 9.59 | >3.02 | > 22.6 | > 7.47 |  |  |  | 
5 | C[C@@H]1CCCN1CCc1cc2cc(-c3ccc(C#N)cc3)ccc2o1 [ABT-239] | > 7.49 | 11.18 | > 37.2 | > 3.33 |  |  |  | 
6 | CC1=C(c2ccc(O)cc2)[C@H](c2ccc(OCCN3CCCCC3)cc2)Oc2cc(O)ccc21 [ACOLBIFENE] | > 9.59 | 2.8 | 13.4 | 4.79 |  |  |  | 
7 | COc1cc(C(C)=O)ccc1OCCCN1CCC(C(O)(c2ccc(F)cc2)c2ccc(F)cc2)CC1 [AHR-5333] | > 7.1 | 5.44 | > 24.7 | > 4.53 |  |  |  | 
8 | COc1ccc(C[C@H]2NC[C@H](O)[C@H]2OC(C)=O)cc1 [ANISOMYCIN] |  |  |  |  | 7.18 | 6.90 |  | 
9 | Cc1cccc(/C=N/Nc2cc(N3CCOCC3)n3nc(-c4ccncc4)cc3n2)c1 [APY0201] |  | >2853.95 | > 39.4 | 0.014 |  |  |  | 
10 | NC1(C(=O)N[C@@H](CCO)c2ccc(Cl)cc2)CCN(c2nc[nH]c3nccc2-3)CC1 [AZD-5363] |  |  |  |  |  |  | > 3.39 | > 4.63
11 | CN1CCN(C2=Cc3cc(Cl)ccc3/C(=C\C#N)c3ccccc32)CC1 [Alkene Stereoisomer analog of Rilapine] | > 9.59 | >13.32 | > 39.8 | 2.99 |  |  |  | 
12 | CCN(CC)Cc1cc(Nc2ccnc3cc(Cl)ccc23)ccc1O [Amodioaquine] |  | >33.48 | > 39.8 | 1.19 |  |  |  | 
13 | CCOC(=O)c1c(CSc2ccccc2)n(C)c2cc(Br)c(O)c(CN(C)C)c12 [Arbidol] | > 9.34 | 4.88 | > 29.1 | > 5.97 |  |  |  | 
14 | CCCN1CCN(c2ccc(C(=O)NC3(C(=O)NCC#N)CCCCC3)cc2)CC1 [Balicatib] | > 9.59 | >7.79 | > 39.8 | 5.11 |  |  |  | 
15 | CC(C)(C)NC(=O)N[C@H](C(=O)N1C[C@H]2[C@@H]([C@H]1C(=O)NC(CC1CCC1)C(=O)C(N)=O)C2(C)C)C(C)(C)C (stereo partly shown) [Boceprevir] | > 7.08 | 4.27 | > 39.8 | > 9.34 |  |  |  | 
16 | CN1[C@@H]2CC[C@H]1C[C@@H](N1Cc3ccc4ccccc4c3C1=O)C2 [CR-3124] |  | >6.67 | > 39.8 |  |  |  |  | 
17 | COc1ccc2cc1Oc1ccc(cc1)C[C@H]1c3c(cc4c(c3Oc3cc5c(cc3OC)CCN(C)[C@@H]5C2)OCO4)CCN1C [Cepharanthine] |  | >25.76 | > 25.4 |  |  |  |  | 
18 | Oc1ccc(CCN2CCC(Nc3nc4ccccc4n3Cc3ccc(F)cc3)CC2)cc1 [DESMETHYLASTEMIZOLE] | > 9.59 | 6.81 | 16.2 | 2.38 |  |  |  | 
